Measured values reported in EP0619818B1, “IMIDAZOYLALKYL SUBSTITUTED WITH A SIX MEMBERED NITROGEN CONTAINING HETEROCYCLIC RING” (SCHERING CORPORATION, priority 1991, dated 1993).

Biological target: H3 receptors (Cavia porcellus, UniProt Q9JI35)
Experiment: H3 Receptor Binding Assay
Details: guinea pig brain membranes; 3 nM [3H]R-α-methylhistamine or [3H]-N-methylhistamine; 30° for 30 min; 50 mM Tris, pH 7.5
Procedure: The animals used weighed 400-600 g. The tissue was homogenized using a Polytron in a solution of 50 mM Tris, pH 7.5. The final concentration of tissue in the homogenization buffer was 10% w/v. The homogenates were centrifuged at 1000 x g for 10 min. in order to remove clumps of tissue and debris. The resulting supernatants were then centrifuged at 50,000 x g for 20 min. in order to sediment the membranes, which were next washed 3 times in homogenization buffer (50,000 x g for 20 min. each). The membranes were frozen and stored at -70°C until needed.
All compounds to be tested were dissolved in DMSO and then diluted into the binding buffer (50 mM Tris, pH 7.5) such that the final concentration was 2 µg/mL with 0.1% DMSO. Membranes were then added (400 µg of protein) to the reaction tubes. The reaction was started by the addition of 3 nM [^3H]R-α-methylhistamine (8.8 Ci/mmol) or [^3H]-N-methylhistamine (80 Ci/mmol) and incubated at 30° for 30 min. Bound ligand was separated from unbound ligand by filtration, and the amount of radioactive ligand bound to the membranes was quantitiated by liquid scintillation spectrometry. All incubations were performed in duplicate and the standard error was less than 10% in all instances.

H3 receptors, sequence (Q9JI35 whole entry): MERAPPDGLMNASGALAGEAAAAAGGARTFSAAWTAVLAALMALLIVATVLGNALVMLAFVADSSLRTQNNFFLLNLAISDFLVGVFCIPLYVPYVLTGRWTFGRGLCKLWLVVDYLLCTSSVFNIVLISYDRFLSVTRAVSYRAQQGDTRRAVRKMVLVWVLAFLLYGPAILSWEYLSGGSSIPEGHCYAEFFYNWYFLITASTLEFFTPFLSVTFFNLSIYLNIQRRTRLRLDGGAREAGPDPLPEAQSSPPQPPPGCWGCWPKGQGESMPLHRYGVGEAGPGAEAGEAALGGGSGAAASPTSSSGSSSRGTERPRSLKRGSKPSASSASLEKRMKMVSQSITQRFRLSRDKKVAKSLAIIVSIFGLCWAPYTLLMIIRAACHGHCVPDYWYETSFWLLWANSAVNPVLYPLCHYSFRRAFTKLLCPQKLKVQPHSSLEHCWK

**Q.** For `CN1CCCC(Cc2c[nH]cn2)C1` (centres unmarked) [Compound 6.2], which Ki is on record?
**A.** The Ki was 190 nM.

**Q.** Which Ki does the source give for `c1nc(CC2CCNCC2)c[nH]1` [Compound 7.3] here?
**A.** Its Ki is 0.3 nM.
